From BindingDB's records for patent US20240352053 (Betta Pharmaceuticals, 2024) come the findings set out here.

Holding throughout (test): Kinase Inhibition Assay
Test [1] addresses Epidermal growth factor receptor (Homo sapiens, UniProt P00533). The procedure:
(§1) Mobility shift assays were performed to determine the compound's inhibitory activity against EGFR delta19del/T790M/C797S, EGFR WT, and IGF1R kinases. The enzyme reaction scheme is as follows: 1. Prepare 1*kinase buffer as follows. Final 1* Kinase buffer concentration HEPES PH 7.5 (mM) 50 Brij-35 0.0150% DTT (mM) 2 Mgcl2, Mncl2 (mM) 10 2. Preparation of compound concentration gradient: The starting concentration of the test compound is 3000 nM or 100 nM, dilute it in the 384-source plate to a 100% DMSO solution of 100 times the final concentration, and use precision to dilute the compound 3 times to 10 concentrations. Use the Dispenser Echo 550 to transfer 250 nL of 100x the final concentration of compound to the destination plate OptiPlate-384F. 3. Prepare a kinase solution with 2.5 times the final concentration using 1x Kinase buffer. 4. Add 10 uL of 2.5 times the final concentration of kinase solution to the compound wells and positive control wells respectively; add 10 uL of 1x Kinase buffer to the negative control wells. 5. Centrifuge at 1000 rpm for 30 seconds, shake and mix the reaction plate and incubate at room temperature for 10 minutes. 6. Use 1x Kinase buffer to prepare a mixed solution of ATP and Kinase substrate at 5/3 times the final concentration. 7. Add 15 uL of a mixed solution of ATP and substrate at 5/3 times the final concentration to start the reaction. 8. Centrifuge the 384-well plate at 1000 rpm for 30 seconds, mix well by shaking, and incubate at room temperature for the corresponding time. 9. Add 30 uL of stop detection solution to stop the kinase reaction, centrifuge at 1000 rpm for 30 seconds, and shake to mix. 10. Use Caliper EZ Reader to read conversion rates. 11. Calculation formula

Test [2] has as its target T1, Epidermal growth factor receptor [1-18,20-1210,T790M,C797S] (Human, UniProt P00533, T790M/C797S).
T1 construct: 1-18,20-1210
The procedure:
as §1

The target in test [3] is Insulin-like growth factor 1 receptor (Homo sapiens, UniProt P08069). As to the method:
as §1

pIC50: −log10 of the molar value.

Chain of Epidermal growth factor receptor (P00533 whole entry): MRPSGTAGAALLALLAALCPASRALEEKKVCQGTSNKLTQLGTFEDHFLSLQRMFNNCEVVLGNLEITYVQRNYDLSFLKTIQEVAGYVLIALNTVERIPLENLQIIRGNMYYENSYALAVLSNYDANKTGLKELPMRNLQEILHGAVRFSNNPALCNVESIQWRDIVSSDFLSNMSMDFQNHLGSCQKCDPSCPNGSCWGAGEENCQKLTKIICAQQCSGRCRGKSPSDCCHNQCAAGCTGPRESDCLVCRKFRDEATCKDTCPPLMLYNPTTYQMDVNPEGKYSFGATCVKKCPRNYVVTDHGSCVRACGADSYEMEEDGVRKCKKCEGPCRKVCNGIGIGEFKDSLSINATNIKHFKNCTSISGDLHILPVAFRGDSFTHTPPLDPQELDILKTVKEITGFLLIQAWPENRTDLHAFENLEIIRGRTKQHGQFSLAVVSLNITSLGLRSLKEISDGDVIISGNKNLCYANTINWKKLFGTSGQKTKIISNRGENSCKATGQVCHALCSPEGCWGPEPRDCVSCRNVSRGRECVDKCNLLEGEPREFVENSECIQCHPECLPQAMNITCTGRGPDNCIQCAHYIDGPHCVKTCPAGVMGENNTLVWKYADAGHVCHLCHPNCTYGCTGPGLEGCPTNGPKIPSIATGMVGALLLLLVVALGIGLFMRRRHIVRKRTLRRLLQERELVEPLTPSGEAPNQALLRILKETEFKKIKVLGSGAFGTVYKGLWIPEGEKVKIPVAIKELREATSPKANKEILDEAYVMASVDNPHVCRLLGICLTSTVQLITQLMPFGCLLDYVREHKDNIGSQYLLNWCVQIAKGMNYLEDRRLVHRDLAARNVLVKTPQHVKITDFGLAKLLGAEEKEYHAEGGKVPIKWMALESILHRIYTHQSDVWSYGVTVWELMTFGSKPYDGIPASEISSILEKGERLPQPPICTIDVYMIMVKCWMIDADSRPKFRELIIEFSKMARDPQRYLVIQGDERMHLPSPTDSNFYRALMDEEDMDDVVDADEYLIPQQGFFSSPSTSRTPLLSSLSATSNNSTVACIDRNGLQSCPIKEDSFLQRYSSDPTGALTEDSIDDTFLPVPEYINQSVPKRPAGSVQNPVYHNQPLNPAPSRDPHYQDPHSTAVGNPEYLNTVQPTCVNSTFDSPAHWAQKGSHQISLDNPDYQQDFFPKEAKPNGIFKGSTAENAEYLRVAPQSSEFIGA
Chain of Insulin-like growth factor 1 receptor (P08069 31-736 limits assumed): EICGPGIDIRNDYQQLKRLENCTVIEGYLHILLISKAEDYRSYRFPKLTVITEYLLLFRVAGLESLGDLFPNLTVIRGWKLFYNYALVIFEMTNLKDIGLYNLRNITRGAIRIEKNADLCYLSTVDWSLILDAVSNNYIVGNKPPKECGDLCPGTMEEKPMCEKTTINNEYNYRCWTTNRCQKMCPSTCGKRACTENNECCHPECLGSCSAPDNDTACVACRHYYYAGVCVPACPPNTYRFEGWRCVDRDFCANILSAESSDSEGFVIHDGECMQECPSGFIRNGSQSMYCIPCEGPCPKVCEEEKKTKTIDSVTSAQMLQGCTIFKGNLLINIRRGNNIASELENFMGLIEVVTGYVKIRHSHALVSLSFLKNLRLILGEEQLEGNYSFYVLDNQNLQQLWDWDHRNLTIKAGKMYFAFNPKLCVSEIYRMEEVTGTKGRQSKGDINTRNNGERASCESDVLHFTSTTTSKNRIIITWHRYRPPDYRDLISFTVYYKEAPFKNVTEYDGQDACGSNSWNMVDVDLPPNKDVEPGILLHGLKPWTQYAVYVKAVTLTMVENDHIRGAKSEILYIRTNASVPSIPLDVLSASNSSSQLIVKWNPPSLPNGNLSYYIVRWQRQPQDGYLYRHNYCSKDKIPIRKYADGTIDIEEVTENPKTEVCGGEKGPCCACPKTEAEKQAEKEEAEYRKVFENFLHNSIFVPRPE
Chain of Insulin-like growth factor 1 receptor (P08069 741-1367 limits assumed): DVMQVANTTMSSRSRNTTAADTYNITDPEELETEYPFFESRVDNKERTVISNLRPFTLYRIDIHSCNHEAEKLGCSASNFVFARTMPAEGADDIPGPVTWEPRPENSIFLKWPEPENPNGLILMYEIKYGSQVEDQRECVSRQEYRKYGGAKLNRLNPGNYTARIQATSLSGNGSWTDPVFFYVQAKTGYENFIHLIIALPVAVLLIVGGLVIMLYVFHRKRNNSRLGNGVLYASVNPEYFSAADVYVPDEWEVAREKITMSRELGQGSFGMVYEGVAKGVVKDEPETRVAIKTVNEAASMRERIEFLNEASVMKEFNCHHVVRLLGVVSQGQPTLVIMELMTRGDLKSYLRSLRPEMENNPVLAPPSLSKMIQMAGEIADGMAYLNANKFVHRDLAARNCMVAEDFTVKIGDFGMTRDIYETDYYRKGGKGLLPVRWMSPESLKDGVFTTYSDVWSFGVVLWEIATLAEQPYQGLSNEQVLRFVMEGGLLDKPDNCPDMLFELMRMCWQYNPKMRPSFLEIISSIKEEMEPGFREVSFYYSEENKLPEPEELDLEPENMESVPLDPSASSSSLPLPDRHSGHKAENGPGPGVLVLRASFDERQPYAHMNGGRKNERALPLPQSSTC

Regarding `CCc1cc(Nc2ncc(Br)c(Nc3ccc4ncccc4c3P(C)(C)=O)n2)c(OC)cc1N1CCC(N2CCN(C)CC2)CC1` [US20240352053, Compound Control Example 1], the negative logarithm of the IC50 (pIC50) (usually the IC50 on a negative log10 scale, so that one unit is a factor of ten) was 8.29 in test [1], 9.70 in test [2] and 8.02 in test [3].
Take `COc1cc(N2CCC(N3CCN(C)CC3)CC2)c(C)cc1Nc1ncc(Br)c(Nc2ccc3nc(C4CC4)ccc3c2P(C)(C)=O)n1` [US20240352053, Compound Formula I]: in test [2], the pIC50 is 9.52.
